Data on 4 molecules can be found in US8119697B2 (Yissum Research Development Company of the Hebrew …, priority 2002, dated 2012).

The test system of assay [1] is conditioned taste avoidance. The assay is described as follows: Consumption test of lithium-paired saccharin solution (conditioned taste avoidance). In kind it is in vivo. As to conditions: pretreatment 5 mg/kg prior to conditioning; 6 hr consumption test on day following final TR test, non-deprived rats. On the procedure: (§1) [drawing 3] • In Experiment 1 were used 29 male rats and in Experiment 2 were used 24 male Sprague-Dawley rats (Charles River Labs, St. Constant, Quebec), which weighed 290-350 gm on the conditioning day. They were individually housed in stainless steel hanging cages in a colony room kept at 21° C. on a 12:12 hr light:dark schedule with the lights on at 07.00 h. Throughout the experiment, the rats were maintained on ad-lib Purina Rat Chow and water. The procedures were approved by the Wilfrid Laurier University Animal Care Committee according to the guidelines of the Canadian Council on Animal Care. • b. The rats were surgically implanted with intra-oral cannulae as described by Parker, L. A. Learn Motiv., 13, 281-303 (1982). The surgical anesthesia preparation included administration of 0.4 mg/kg atropine solution i.p. 15 min prior to ketamine (75 mg/kg, i.p.) combined with xylazine (10 mg/kg, i.p.) which was dissolved in sterile water and administered at a volume of 1 ml/kg. […] On this trial, the water bottles were replaced with tubes containing the saccharin solution and the amounts consumed over a 6 hr period of drinking were recorded. • i. Taste reactivity scoring: A rater blind to the experimental conditions scored the videotapes on two occasions in slow motion (⅕ speed) using the Observer (Noldus, NL) event-recording program on a PC computer. […]

The subject of assay [2] is lithium-induced nausea (conditioned rejection reactions). The assay is described as follows: Taste Reactivity (TR) test: lithium-induced conditioned rejection reactions to saccharin solution. As to conditions: for establishment of conditioned rejection reactions: pretreatment 5 mg/kg ip 30 min prior to conditioning trial (saccharin-lithium pairing), versus vehicle pretreatment. It is filed as in vivo, rats. On the procedure:
as §1, with “ml/kg. On each of three subsequent days during recovery from surgery, the cannulae were flushed with a chlorhexidine rinse (Novlosan; 0.1% chlorhexidine) to prevent infection. • c. […] The rats were randomly assigned to independent groups on the basis of the pretreatment drug and the conditioning drug. In Experiment 1, the groups were as follows: CBD-lithium (n=8), CBD-saline (n=6), Vehicle-lithium (n=8), Vehicle-saline (n=7). In Experiment 2, the groups were as follows: CBD-DMH-lithium (n=6), CBD-DMH-saline (n=6), Vehicle-lithium (n=6), Vehicle-saline (n=6). […] The order of the test trials was counterbalanced among the rats in each group. • d.” for “ml/kg.”

The target of another assay is CB1 receptor (Homo sapiens, UniProt P21554). Conditions: cited from earlier work.
Sequence of CB1 receptor (P21554 whole entry): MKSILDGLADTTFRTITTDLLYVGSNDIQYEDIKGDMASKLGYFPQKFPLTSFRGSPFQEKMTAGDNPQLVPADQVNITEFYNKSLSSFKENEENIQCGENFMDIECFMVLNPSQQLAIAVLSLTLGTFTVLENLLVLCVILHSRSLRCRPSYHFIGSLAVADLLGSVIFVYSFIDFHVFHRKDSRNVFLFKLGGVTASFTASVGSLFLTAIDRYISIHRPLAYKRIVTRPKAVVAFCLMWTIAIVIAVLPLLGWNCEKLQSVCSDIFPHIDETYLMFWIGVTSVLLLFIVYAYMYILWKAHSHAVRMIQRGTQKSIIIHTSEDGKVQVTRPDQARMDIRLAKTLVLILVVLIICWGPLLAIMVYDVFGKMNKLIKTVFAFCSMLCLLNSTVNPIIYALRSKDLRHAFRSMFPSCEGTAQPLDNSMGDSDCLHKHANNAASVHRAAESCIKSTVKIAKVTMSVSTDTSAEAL
The test system of assay [3] is lithium-induced nausea (conditioned rejection reactions). As to conditions: previously reported, rats; cited from earlier work.
Assay [4] relates to conditioned taste avoidance. Conditions: previously reported, as pretreatment agent; cited from earlier work.

Each structure is given as a SMILES string.

On to `C=C(C)[C@@H]1CCC(C)=C[C@H]1c1c(O)cc(CCCCC)cc1O` [CBD, cannabidiol], for which, in assay [1], the “strength of avoidance response (ml saccharin solution consumed)” value was “did not modulate the strength of the avoidance response”. Besides, the “expression of previously established conditioned rejection reactions” value in assay [2] (5 mg/kg ip 30 min prior to TR test trial, lithium-conditioned male Sprague-Dawley rats, versus vehicle test trial) was “attenuated the expression of previously established conditioned rejection reactions”. In addition, in assay [2], the “establishment of conditioned rejection reactions” value is “attenuated the establishment of conditioned rejection reactions”.
On to `C=C(C)C1CCC(C)=CC1c1c(O)cc(C(C)(C)CCCCCC)cc1O` (stereo not drawn) [CBD-DMH, cannabidiol-dimethyl heptyl], for which the “strength of avoidance response (ml saccharin solution consumed)” value in assay [1] is reported as “did not modulate the strength of the avoidance response”. In addition, the “establishment of conditioned rejection reactions” value in assay [2] is recorded as “interfered with the establishment of conditioned rejection reactions”. Also, the “affinity for the CB1 receptor” value on CB1 receptor is reported as “relatively weak affinity”.
For the molecule `CCCCCc1cc(O)c2c(c1)OC(C)(C)[C@@H]1CCC(C)=C[C@@H]21` [THC], the “establishment and expression of conditioned rejection reactions” value in assay [3] is “interfered with the establishment and the expression of conditioned rejection reactions”.
`Cc1nccn1CC1CCc2c(c3ccccc3n2C)C1=O` (stereo not drawn) [ondansetron]: the “establishment of conditioned taste avoidance in a consumption test” value in assay [4] is given as “did not interfere with the establishment of conditioned taste avoidance”. In addition, the “establishment and expression of conditioned rejection reactions” value in assay [3] is “interfered with the establishment and the expression of conditioned rejection reactions”.
